This note sets out measurements from ChEMBL document CHEMBL4312009, “Multigram scale synthesis of polycyclic lactones and evaluation of antitumor and other biological properties” (Eur J Med Chem, 2020).

In one data set the test system is CHO. Nature of the data set: Cytotoxicity against CHO cells assessed as reduction in cell viability. It is filed as cell-based. The settings on record: Cricetulus griseus.
A further data set deals with CYP1A1. Nature of the data set: Selectivity index, ratio of IC50 of cytotoxicity against CHO cells to IC50 for bioactivation in CYP1A1 (unknown origin) transfected CHO cells assessed as CYP1A1-mediated drug activation by measuring reduction in cell viability. It is filed as cell-based. The conditions noted are these: hamster, CHO cells and CYP1A1-transfected CHO cells; read-out: Ratio IC50.

In data set [1] the target is Apolipoprotein C-III (Homo sapiens) (UniProt P02656). The data set is described as follows: Inhibition of human APOC3 at 40 uM relative to control.
Chain of Apolipoprotein C-III (Homo sapiens) (P02656 whole entry): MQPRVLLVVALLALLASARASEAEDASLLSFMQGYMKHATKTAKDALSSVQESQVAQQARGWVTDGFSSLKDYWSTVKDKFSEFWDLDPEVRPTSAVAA
Data set [2] in a line: Activation of wnt pathway in mouse C2C12 cells assessed as increase in alkaline phosphatase activity. It is filed as cell-based.
The test system of data set [3] is GTPase KRas (Homo sapiens), P01116 [UNDEFINED MUTATION]. Nature of the data set: Inhibition of KRas mutant in human SW480 cells assessed as cell viability by measuring ATP. The class given is cell-based.
Chain of GTPase KRas (Homo sapiens), P01116 [UNDEFINED MUTATION] (P01116 whole entry, looked up, change not shown): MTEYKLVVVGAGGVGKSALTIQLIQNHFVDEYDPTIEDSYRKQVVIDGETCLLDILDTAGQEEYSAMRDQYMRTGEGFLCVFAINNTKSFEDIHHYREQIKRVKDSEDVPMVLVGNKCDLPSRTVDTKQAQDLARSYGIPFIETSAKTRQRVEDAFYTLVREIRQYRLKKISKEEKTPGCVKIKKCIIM
Data set [4] deals with HeLa. The data set is described as follows: Cell cycle arrest in human HeLa cells incubated for 21 hrs by propidium iodide based flow cytometry. It is filed as functional. Background: In flow cytometry, cells or beads pass a laser one at a time.
Data set [5] addresses Proprotein convertase subtilisin/kexin type 9 (Homo sapiens) (UniProt Q8NBP7). The data set is described as follows: Inhibition of human PCSK9 at 40 uM relative to control.
Data set [6] concerns GTPase KRas (Homo sapiens), P01116 [UNDEFINED MUTATION]. The data set is described as follows: Inhibition of KRas mutant in human HCT116 cells assessed as cell viability by measuring ATP at 2 uM relative to control. It is filed as cell-based.
Data set [7] shares this test system. Nature of the data set: Inhibition of KRas mutant in human DLD1 cells assessed as cell viability by measuring ATP at 2 uM relative to control. The class given is cell-based.
In data set [8] the test system is HeLa. Nature of the data set: Cell cycle arrest in human HeLa cells assessed as effect on 2N stage incubated for 21 hrs by propidium iodide based flow cytometry. It is filed as functional.
The target of data set [9] is Microtubule-associated protein tau (Homo sapiens) (UniProt P10636). Nature of the data set: Inhibition of human Tau at 40 uM relative to control.
Chain of Microtubule-associated protein tau (Homo sapiens) (P10636 whole entry): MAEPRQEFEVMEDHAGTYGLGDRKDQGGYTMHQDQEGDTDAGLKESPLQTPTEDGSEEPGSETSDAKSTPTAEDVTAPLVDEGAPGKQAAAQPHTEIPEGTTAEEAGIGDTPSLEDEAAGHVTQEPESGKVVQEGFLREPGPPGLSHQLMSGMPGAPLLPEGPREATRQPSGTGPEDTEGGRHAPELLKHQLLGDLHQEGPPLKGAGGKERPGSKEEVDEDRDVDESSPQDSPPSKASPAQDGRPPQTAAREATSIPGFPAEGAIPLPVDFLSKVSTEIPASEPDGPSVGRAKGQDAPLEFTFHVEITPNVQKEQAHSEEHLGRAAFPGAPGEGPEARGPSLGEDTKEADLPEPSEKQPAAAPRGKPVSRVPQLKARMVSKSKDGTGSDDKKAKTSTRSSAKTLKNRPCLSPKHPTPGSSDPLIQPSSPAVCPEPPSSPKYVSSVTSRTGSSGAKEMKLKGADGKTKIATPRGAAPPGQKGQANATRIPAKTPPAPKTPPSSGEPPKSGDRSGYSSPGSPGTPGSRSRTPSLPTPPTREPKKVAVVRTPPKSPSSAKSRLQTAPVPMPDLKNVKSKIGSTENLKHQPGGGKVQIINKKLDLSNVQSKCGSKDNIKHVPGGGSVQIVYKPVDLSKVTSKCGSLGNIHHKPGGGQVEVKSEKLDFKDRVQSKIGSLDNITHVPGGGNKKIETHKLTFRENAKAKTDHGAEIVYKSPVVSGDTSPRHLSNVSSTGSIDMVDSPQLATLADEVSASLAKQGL
The target of data set [10] is Sodium channel protein type 9 subunit alpha (Homo sapiens) (UniProt Q15858). Nature of the data set: Inhibition of human Nav1.7 at 40 uM relative to control.
Chain of Sodium channel protein type 9 subunit alpha (Homo sapiens) (Q15858 whole entry, looked up): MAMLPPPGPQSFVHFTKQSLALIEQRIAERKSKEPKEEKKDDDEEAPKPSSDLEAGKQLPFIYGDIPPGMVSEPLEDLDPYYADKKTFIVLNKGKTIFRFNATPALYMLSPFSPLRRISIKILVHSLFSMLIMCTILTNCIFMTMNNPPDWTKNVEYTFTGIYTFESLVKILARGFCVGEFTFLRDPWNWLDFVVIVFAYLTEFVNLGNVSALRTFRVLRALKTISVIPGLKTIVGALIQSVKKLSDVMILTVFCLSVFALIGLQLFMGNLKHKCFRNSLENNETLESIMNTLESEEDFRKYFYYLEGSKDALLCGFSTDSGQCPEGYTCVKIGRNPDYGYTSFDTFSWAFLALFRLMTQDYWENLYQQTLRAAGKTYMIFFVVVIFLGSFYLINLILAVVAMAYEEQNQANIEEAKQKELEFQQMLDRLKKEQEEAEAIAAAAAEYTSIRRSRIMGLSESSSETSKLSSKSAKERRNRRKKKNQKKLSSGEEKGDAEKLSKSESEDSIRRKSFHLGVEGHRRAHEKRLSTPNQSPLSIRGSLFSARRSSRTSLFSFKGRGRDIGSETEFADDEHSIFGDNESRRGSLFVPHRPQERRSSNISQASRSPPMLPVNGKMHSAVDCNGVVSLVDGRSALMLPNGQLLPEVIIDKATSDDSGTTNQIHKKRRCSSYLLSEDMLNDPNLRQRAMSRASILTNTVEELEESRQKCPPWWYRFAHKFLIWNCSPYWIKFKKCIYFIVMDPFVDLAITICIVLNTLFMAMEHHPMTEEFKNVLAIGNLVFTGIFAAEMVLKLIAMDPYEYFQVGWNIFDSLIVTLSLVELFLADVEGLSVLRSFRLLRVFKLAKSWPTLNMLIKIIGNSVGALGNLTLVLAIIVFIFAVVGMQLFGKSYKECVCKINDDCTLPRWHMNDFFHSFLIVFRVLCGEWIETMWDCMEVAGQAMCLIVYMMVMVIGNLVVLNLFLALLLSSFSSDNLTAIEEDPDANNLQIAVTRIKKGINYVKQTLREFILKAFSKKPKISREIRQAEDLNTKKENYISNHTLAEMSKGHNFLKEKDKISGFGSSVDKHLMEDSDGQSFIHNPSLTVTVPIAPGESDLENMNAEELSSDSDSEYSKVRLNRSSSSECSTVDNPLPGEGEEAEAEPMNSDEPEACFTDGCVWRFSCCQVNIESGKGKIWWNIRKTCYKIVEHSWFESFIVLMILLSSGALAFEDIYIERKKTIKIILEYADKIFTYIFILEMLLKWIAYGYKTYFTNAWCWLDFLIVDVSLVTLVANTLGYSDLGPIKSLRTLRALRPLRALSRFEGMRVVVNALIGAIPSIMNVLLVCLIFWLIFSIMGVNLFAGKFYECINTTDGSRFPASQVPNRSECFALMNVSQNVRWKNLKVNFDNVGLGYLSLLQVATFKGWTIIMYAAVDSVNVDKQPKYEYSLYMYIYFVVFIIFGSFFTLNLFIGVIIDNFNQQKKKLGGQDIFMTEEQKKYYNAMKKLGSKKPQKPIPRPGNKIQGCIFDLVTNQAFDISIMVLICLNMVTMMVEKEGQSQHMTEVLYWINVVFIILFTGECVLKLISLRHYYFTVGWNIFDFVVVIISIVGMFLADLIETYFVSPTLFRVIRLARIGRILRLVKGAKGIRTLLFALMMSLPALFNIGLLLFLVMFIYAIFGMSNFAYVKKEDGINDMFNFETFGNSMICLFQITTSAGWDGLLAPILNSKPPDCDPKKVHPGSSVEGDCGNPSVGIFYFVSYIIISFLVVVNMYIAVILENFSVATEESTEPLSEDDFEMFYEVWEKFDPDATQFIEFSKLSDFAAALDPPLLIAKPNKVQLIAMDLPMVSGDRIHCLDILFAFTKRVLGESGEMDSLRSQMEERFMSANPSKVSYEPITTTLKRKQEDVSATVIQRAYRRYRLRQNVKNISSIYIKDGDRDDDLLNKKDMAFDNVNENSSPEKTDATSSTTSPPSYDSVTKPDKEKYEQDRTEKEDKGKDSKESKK
The subject of data set [11] is GTPase KRas (Homo sapiens), P01116 [UNDEFINED MUTATION]. Nature of the data set: Inhibition of KRas mutant in human HCT116 cells assessed as cell viability by measuring ATP. It is filed as cell-based.
Data set [12] deals with T1, Angiopoietin-like protein 8 (Homo sapiens) (UniProt Q6UXH0).
T1 sequence (whole entry): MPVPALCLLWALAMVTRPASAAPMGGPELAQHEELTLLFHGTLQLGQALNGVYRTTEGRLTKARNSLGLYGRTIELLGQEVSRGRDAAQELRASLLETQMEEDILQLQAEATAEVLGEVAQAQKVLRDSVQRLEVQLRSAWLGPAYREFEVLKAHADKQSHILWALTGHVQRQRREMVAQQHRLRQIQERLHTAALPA
The data set is described as follows: Inhibition of human Angptl8 at 40 uM relative to control.

Data set [13] concerns GTPase KRas (Homo sapiens), P01116 [UNDEFINED MUTATION]. Nature of the data set: Inhibition of KRas mutant in human DLD1 cells assessed as cell viability by measuring ATP at 20 uM relative to control. It is filed as cell-based.
Data set [14] shares this test system. Nature of the data set: Inhibition of KRas mutant in human HCT116 cells assessed as cell viability by measuring ATP at 0.2 uM relative to control. It is filed as cell-based.
For data set [15] the test system is unchanged. The data set is described as follows: Inhibition of KRas mutant in human HCT116 cells […] assessed as cell viability by measuring ATP. The class given is cell-based.
Data set [16] shares this test system. The data set is described as follows: Inhibition of KRas mutant in human SW480 cells assessed as cell viability by measuring ATP at 0.2 uM relative to control. It is filed as cell-based.
For data set [17] the test system is unchanged. The data set is described as follows: Inhibition of KRas mutant in human HCT116 cells […] assessed as cell viability by measuring ATP at 20 uM relative to control. The class given is cell-based.
Data set [18] has the same test system. The data set is described as follows: Inhibition of KRas mutant in human SW480 cells assessed as cell viability by measuring ATP at 20 uM relative to control. It is filed as cell-based.
Data set [19] shares this test system. Nature of the data set: Inhibition of KRas mutant in human HCT116 cells […] assessed as cell viability by measuring ATP at 2 uM relative to control. The class given is cell-based.
For data set [20] the test system is unchanged. Nature of the data set: Inhibition of KRas mutant in human DLD1 cells assessed as cell viability by measuring ATP. The class given is cell-based.
For data set [21] the test system is unchanged. Nature of the data set: Inhibition of KRas mutant in human SW480 cells assessed as cell viability by measuring ATP at 2 uM relative to control. It is filed as cell-based.
A short description of data set [22]: Activation of wnt pathway in mouse C2C12 cells assessed as increase in beta-catenin activity. The class given is cell-based.
The test system of data set [23] is HeLa. The data set is described as follows: Cell cycle arrest in human HeLa cells assessed as effect on G1 phase incubated for 21 hrs by propidium iodide based flow cytometry. It is filed as functional.
Data set [24] deals with HeLa. Nature of the data set: Cell cycle arrest in human HeLa cells assessed as effect on S phase incubated for 21 hrs by propidium iodide based flow cytometry. It is filed as functional.
The subject of data set [25] is HeLa. The data set is described as follows: Cell cycle arrest in human HeLa cells assessed as effect on mitotic index incubated for 21 hrs by propidium iodide based flow cytometry. It is filed as functional.
Data set [26] has as its system HeLa. The data set is described as follows: Cell cycle arrest in human HeLa cells assessed as effect on 4N stage incubated for 21 hrs by propidium iodide based flow cytometry. It is filed as functional.
The test system of data set [27] is GTPase KRas (Homo sapiens), P01116 [UNDEFINED MUTATION]. The data set is described as follows: Inhibition of KRas mutant in human DLD1 cells assessed as cell viability by measuring ATP at 0.2 uM relative to control. The class given is cell-based.
For data set [28] the test system is unchanged. Nature of the data set: Inhibition of KRas mutant in human HCT116 cells […] assessed as cell viability by measuring ATP at 0.2 uM relative to control. It is filed as cell-based.
The test system is the same in data set [29]. The data set is described as follows: Inhibition of KRas mutant in human HCT116 cells assessed as cell viability by measuring ATP at 20 uM relative to control. The class given is cell-based.
The test system of data set [30] is HT-29. Nature of the data set: Antiproliferative activity against human HT-29 cells assessed as reduction in cell viability incubated for 24 hrs by MTT assay. It is filed as functional, cell-based. The settings on record: HT-29, 24 h. A general note: Formazan colour is commonly taken as a measure of viable cells.
Data set [31] concerns HT-29. Nature of the data set: Antiproliferative activity against human HT-29 cells assessed as reduction in cell viability incubated for 24 hrs in hypoxia condition by MTT assay. The settings on record: HT-29, 24 h. The class given is functional, cell-based.
The subject of data set [32] is HT-29. The data set is described as follows: Selectivity index, ratio of IC50 of antiproliferative activity against human HT-29 cells in normoxia to IC50 of antiproliferative activity against human HT-29 cells in hypoxia condition. It is filed as functional.

Chain of Proprotein convertase subtilisin/kexin type 9 (Homo sapiens) (Q8NBP7 31-152 limits assumed): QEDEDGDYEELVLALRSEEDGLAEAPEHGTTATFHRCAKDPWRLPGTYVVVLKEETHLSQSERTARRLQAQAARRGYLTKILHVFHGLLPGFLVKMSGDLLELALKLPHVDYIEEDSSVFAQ
Chain of Proprotein convertase subtilisin/kexin type 9 (Homo sapiens) (Q8NBP7 153-692 limits assumed): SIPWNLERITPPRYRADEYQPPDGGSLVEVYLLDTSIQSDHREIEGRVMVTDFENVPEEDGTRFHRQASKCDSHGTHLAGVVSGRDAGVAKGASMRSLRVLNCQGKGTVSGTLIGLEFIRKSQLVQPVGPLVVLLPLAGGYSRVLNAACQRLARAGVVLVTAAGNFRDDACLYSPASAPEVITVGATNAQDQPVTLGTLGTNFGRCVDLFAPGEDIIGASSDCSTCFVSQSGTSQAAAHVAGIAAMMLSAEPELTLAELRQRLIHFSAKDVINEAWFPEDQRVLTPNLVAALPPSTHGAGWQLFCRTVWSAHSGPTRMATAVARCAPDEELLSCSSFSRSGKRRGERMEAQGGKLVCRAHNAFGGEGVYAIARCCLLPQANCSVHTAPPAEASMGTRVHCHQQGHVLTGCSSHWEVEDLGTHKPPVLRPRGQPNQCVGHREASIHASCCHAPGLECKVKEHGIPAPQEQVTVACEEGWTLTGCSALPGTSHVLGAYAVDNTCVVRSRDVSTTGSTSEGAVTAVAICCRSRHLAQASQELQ

As for `Cc1c2ccncc2c(C)c2c1[nH]c1ccccc12` [ELLIPTECINE], the half-maximal inhibitory concentration (IC50) in the data set with CHO was determined as 20 nM. Also, the selectivity ratio in the data set with CYP1A1 is 15.6.
With `Cc1c2c(c(CCCCBr)c3c1Oc1ccccc1O3)C(=O)OC2`, the inhibition in data set [1] was 67%; in data set [3], “Dose-dependent effect”; in [5] it was 35%; in data set [6], 56%; in [7], 45%; in data set [9], 56%. For the same compound, the inhibition in [10] was 0%; in data set [11], “Dose-dependent effect”; in [12], 67%; in data set [13], 76%; in data set [14], 33%; in data set [15], “Dose-dependent effect”. Moreover, the inhibition was 7% in data set [16]; 53% in data set [17]; 63% in data set [18]; 58% in [19]; “Dose-dependent effect” in data set [20]; 62% in [21]. The inhibition was 30% in [27], 15% in data set [28] and 76% in data set [29]. Also, the EC50 in data set [2] is 8200 nM; in [22] it was above 20000 nM; with HeLa [23] it was above 10000 nM; in the data set with HeLa [25] it was 1300 nM; in the data set with HeLa [26], 1400 nM. Besides, the IC50 in the data set with HeLa [4] is 600 nM; in the data set with HeLa [8], 1500 nM; with HeLa [24] it was above 10000 nM.
Consider `CCCCc1c2c(c(C)c3c1C(=O)OC3)Oc1ccccc1O2`, for which the IC50 was 1730 nM with HT-29 [30]; 1700 nM with HeLa [4]; 2200 nM in the data set on HeLa [8]; 1480 nM in the data set on CHO; 7330 nM in the data set on HT-29 [31]; above 10000 nM with HeLa [24]. The inhibition in [1] is 89%; in data set [3], “Dose-dependent effect”; in data set [5] it was 95%; in [6], 66%; in data set [7] it was 65%; in data set [9], 92%. Further, the inhibition was 76% in [10]; “Dose-dependent effect” in data set [11]; 93% in [12]; 91% in data set [13]; 5% in data set [14]; “Dose-dependent effect” in data set [15]. The inhibition in data set [16] is 17%; in data set [17], 80%; in data set [18], 138%; in data set [19], 63%; in [20], “Dose-dependent effect”; in data set [21], 73%. Also, the values for the inhibition in data set [27], in [28] and in data set [29] were 17%, 67% and 78%, respectively. Besides, the EC50 was 6700 nM in [2]; above 20000 nM in data set [22]; above 10000 nM in the data set on HeLa [23]; 2100 nM with HeLa [25]; 2000 nM in the data set with HeLa [26]. The selectivity ratio with CYP1A1 came out at 3.7. Further, the “Ratio IC50” value with HT-29 [32] was found to be 0.24.
With `CCCCCCc1c2c(c(C)c3c1C(=O)OC3)Oc1ccccc1O2`, the IC50 with HT-29 [30] was 1330 nM; in the data set on HeLa [4], 1800 nM; in the data set on HeLa [8], 2100 nM; in the data set with CHO, 1520 nM; in the data set with HT-29 [31], 8930 nM; in the data set on HeLa [24], above 10000 nM. Moreover, the inhibition in data set [1] is 75%; in data set [3], “Dose-dependent effect”; in data set [5] it was 75%; in [6], 60%; in data set [7], 50%; in [9] it was 77%. Further, the inhibition entry in data set [11] is “Dose-dependent effect”; in [12], 86%; in data set [13], 112%; in data set [14], 12%; in [15], “Dose-dependent effect”; in [16] it was 21%. The inhibition was 62% in [17]; 86% in data set [18]; 69% in data set [19]; “Dose-dependent effect” in data set [20]; 58% in data set [21]; 14% in data set [27]. Also, the inhibition came out at 52% in data set [28] and 91% in [29]. The EC50 in data set [2] is 7600 nM; in data set [22] it was above 20000 nM; in the data set with HeLa [23] it was above 10000 nM; with HeLa [25], above 10000 nM; in the data set with HeLa [26], 2000 nM. In the data set on CYP1A1, the selectivity ratio amounted to 0.6. Besides, in the data set with HT-29 [32], the “Ratio IC50” value was found to be 0.15.
As to `CCc1c2c(nc3ccc(OC(=O)N4CCC(N5CCCCC5)CC4)cc13)-c1cc3c(c(=O)n1C2)COC(=O)[C@]3(O)CC` [IRINOTECAN], the 50% inhibitory concentration (IC50) in the data set on HT-29 [30] stood at 3960 nM; with HT-29 [31], 3550 nM. Also, the “Ratio IC50” value in the data set on HT-29 [32] came out at 1.12.

By IC50 is commonly meant the midpoint of a concentration-inhibition curve. The term inhibition denotes the drop in the measured response relative to a control, in per cent. One may read the EC50 as the concentration needed to bring the measured effect to its halfway point.
